Data from patent US10058608B2, “Compositions of vaccines and adjuvants and methods for the treatment of urinary tract infections” (priority 2013, dated 2018).

Assay: Forced degradation studies by TOF-MS
Format: physicochemical
Settings: 0.5 mg/ml in potassium citrate, pH 8.1, 37° C.
Protocol: 0.5 mg/ml of PHAD was prepared in potassium citrate, pH 8.1 and stored at 37° C. pH 8.1 is outside the preferred ranges of the invention and induces degradation. Samples were prepared for analysis by the addition of 200 μL of CHCl3, 200 μL of methanol, and 100 μL of ammonium acetate in 80:20 methanol/water. After mixing the bottom layer was transferred and diluted with 100 μL of methanol. Samples were analyzed by electrospray time-of-flight (TOF) mass spectrometry (MS) in negative mode via direct infusion. […] In addition, those skilled in the art understand that various adduct ions may occur during each analysis from day to day. Therefore, molecular formulas are based upon the ions observed considering error of the system day to day. […] By Days 1, 7, 13, and 20 significant ions appear at 1309 and 1519 and continue to increase from Day 1 to Day 20. The MS ion at 1309 represents a loss of two acyl groups (molecular formula is C28H53O3; 437 Daltons) and the MS ion at 1519 represents a loss of a single acyl group (molecular formula is C14H27O2; 227 Daltons) from the diglucosamine scaffold. By Day 7, the mass intensity of the 1519 ion had increased to 46% of the mass intensity of the 1745 mass ion. On Day 0 the mass intensity of the 1519 ion was 4% of that of the 1745 mass ion.
0.5 mg/ml of 3-deacyl-phosphorylated hexaacyl disaccharide was prepared in potassium citrate, pH 8.1 and stored at 37° C. All preparation and analysis were conducted as listed in experiment 1. […] By Days 1, 13, and 22 a significant ion appeared at 1084 and continued to increase from Day 1 to Day 22. The MS ion at 1084 represents a loss of two acyl groups (molecular formula is C28H53O3; 437 Daltons) from the diglucosamine scaffold. By Day 13 the intensity of the 1084 mass ion had increased to 24% of the intensity of the 1521 mass ion. On Day 0 the intensity of the 1084 mass ion was 3% of the intensity of the 1521 mass ion. […] Phosphorylated hexaacyl disaccharide and 3-deacyl phosphorylated hexaacyl disaccharide primarily degrade by losing acyl groups. The formulations of the invention prevent the loss of these acyl groups.
Because it was both pure and abundant, the pentaacyl MLA component was chosen for examination of its degradation mechanism. […] The degradation experiment was conducted in PBS, pH 7.4 and stored at 37° C. This saline buffer system was selected because the use of saline is outside the preferred embodiments of the invention.

Substance: 3-deacyl-phosphorylated hexaacyl disaccharide
- intensity of the 1084 mass ion relative to the 1521 mass ion (Day 0): 3%
- intensity of the 1084 mass ion relative to the 1521 mass ion (Day 13): 24%

Substance: phosphorylated hexaacyl disaccharide [PHAD]
- mass intensity of the 1519 ion relative to the 1745 mass ion (Day 0): 4%
- mass intensity of the 1519 ion relative to the 1745 mass ion (Day 7): 46%
